According to patent US8859615B2, “Compounds, compositions and methods for reducing toxicity and treating or preventing diseases” (priority 2008, dated 2014):
pIC50: −log10 of the molar value.

Key:
[1] = test system: A-549 lung carcinoma; experiment: Cytotoxicity against solid tumor cells (Table 4); assay type: cell-based; conditions: Homo sapiens, A549, CCK-8, 72 hrs
Experimental: (§1) Compounds are also evaluated against A-549 lung carcinoma and SK-OV-3 ovarian adenocarcinoma cell lines using the methodology as for Table 3. The potency order for the compounds may vary in different tumor cell lines. […] Absorbance was measured using a Powerwave XS microplate spectrophotometer.

[2] = test system: SK-OV-3 ovarian adenocarcinoma; experiment: Cytotoxicity against solid tumor cells (Table 4); assay type: cell-based; conditions: Homo sapiens, CCK-8, 72 hrs
Experimental: as §1

[3] = test system: quinone reductase (NQO1) in Hepa 1c1c7 murine hepatoma cells; experiment: Phase 2 enzyme inducer activity (Prochaska microtiter plate bioassay)
Experimental: Pure panaxytriol was dissolved in dimethyl sulfoxide. Phase 2 enzyme inducer activity was measured using a rapid assay of activity of representative phase 2 enzyme in a cell line. This assay was originally developed by Prochaska and colleagues as in Prochaska H J, Santamaria A B, Talalay P. “Rapid detection of inducers of enzymes that protect against carcinogens.” Proc Natl Acad Sci US A 1992; 89:2394-2398, and has been further refined as in Fahey J W, Dinkova-Kostova A T, Stephenson K K, Talalay P. “The “Prochaska” microtiter plate bioassay for inducers of NQO1.” Methods Enzymol. 2004; 382:243-258, each of which are incorporated by reference in its entirety. Briefly, Hepa 1c1c7 murine hepatoma cells were grown in 96-well microtiter plates. Serial dilutions of the extracts or compounds which were assayed were added into the wells. After 48 hours, the cells were lysed and the activity of quinone reductase (NQO1) was assayed by the addition of a reaction mixture containing an NADPH-generating system, menadione and MTT. NQO1 catalyzes the reduction of menadione to menadiol by NADPH, and MTT is reduced nonenzymatically by menadiol, resulting in the formation of a blue color that can then be quantitated as in Prochaska H J, Santamaria A B. “Direct measurement of NAD(P)H:quinone reductase from cells cultured in microtiter wells: a screening assay for anticarcinogenic enzyme inducers.” Anal. Biochem. 1988; 169:328-336, which is incorporated by reference in its entirety. […] NQO1 activity and protein content of the lysate were measured in duplicate plates with an optical microtiter plate absorbance reader. […] One unit of inducer activity is defined as the amount that, when added to a single microtiter well, doubles the NQO1 specific activity. Sulforaphane and β-naphthoflavone were used as positive controls in each bioassay. […] NQO1 inducer activity was assayed as described herein, and is reported here as treated/control at different concentrations of ginseng extract or component per well. […] (+) Panaxytriol (molecular weight […]), (Δ) Protopanaxatriol (molecular weight 461), (◯) Korean red SUN GINSENG® extract. The reductase assay can also be performed as disclosed in PCT Publication No. WO 06/023821, the entire contents of which are hereby incorporated in the instant application.

Question: With `C=C[C@H](O)C#CC#CC[C@H]1OC(C)(C)O[C@@H]1CCCCCCC` [Compound (D)] as the compound, how does the pIC50 [1] read?
Answer: The pIC50 was 5.55.

Question: And the pIC50 [2]?
Answer: Its pIC50 is 5.29.

Question: What does the source list for `C=C[C@@H](O)C#CC#CC[C@@H](O)[C@H](O)CCCCCCC` [panaxytriol]?
Answer: potency as an inducer relative to protopanxadiol or protopanaxatriol [3]: over 10 fold; significant cytotoxicity observed above ([3]; Hepa 1c1c7 cells): above 0.5 μg/well; inducer potency ([3]; NQO1): 5,760,000 U/g; concentration of doubling (CD), average ([3]; NQO1, 48 hours): 3.85 µM
